Reference: article PMC10480161, “Identification of potent and selective N-myristoyltransferase inhibitors of Plasmodium vivax liver stage hypnozoites and schizonts” (Nature Communications, 2023)
Several values for one entry are separate records, joined by “and”; a condition that tells them apart may be missing. Equal values may be shown once.

Experiments:
[1] = target: PvNMT (Plasmodium vivax, UniProt A5K1A2); experiment: NMT activity assay (CPM detection of free CoA), PvNMT; details: for IC50: PvNMT IC50, mean of two or more determinations; for SI: enzyme selectivity, HsNMT IC50/PvNMT IC50
PvNMT, sequence (A5K1A2 entry or part of it): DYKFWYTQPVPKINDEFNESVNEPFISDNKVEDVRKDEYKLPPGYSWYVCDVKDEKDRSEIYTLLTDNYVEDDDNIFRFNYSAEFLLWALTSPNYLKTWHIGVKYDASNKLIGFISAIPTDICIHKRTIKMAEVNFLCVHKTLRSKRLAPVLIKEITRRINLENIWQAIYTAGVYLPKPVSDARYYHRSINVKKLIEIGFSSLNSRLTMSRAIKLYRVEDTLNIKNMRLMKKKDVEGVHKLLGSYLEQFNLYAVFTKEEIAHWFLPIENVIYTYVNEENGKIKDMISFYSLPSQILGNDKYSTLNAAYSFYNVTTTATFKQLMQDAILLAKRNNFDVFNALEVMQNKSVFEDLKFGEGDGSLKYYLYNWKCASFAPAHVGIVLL

[2] = target: T1, HsNMT1 (Homo sapiens, UniProt P30419); experiment: NMT activity assay (CPM detection of free CoA), HsNMT
T1 sequence (P30419 1-496): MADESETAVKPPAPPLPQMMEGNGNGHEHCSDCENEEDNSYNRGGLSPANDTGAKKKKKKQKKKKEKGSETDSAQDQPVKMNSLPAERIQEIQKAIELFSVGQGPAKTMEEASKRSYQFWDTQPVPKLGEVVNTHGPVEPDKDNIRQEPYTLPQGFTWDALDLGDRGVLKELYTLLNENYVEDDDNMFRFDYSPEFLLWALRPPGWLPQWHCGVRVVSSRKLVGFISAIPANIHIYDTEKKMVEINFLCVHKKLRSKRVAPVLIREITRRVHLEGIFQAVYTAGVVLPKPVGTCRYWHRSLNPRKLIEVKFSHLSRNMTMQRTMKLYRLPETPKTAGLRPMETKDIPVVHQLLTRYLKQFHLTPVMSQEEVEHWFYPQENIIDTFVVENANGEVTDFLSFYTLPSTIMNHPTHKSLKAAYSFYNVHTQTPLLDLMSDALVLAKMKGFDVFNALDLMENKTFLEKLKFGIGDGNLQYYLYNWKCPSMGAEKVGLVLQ

[3] = tested on: P. vivax hypnozoites; experiment: P. vivax liver stage assay, hypnozoites; type: cell-based, Plasmodium vivax; details: for Hypnozoites per well: Isolate 2, replicate wells (Figure 6d); for Number of liverstage hypnozoites per well: 20 µM, 8 dpi; for IC50: Plasmodium vivax, Hepatocyte, 120 h, primary human hepatocytes, treatment day 5 to 8 post-infection, isolate 2
Experimental: Finally, we evaluated the NMT-binding compounds against non-developing P. vivax hypnozoites. […] (Fig. 6A). […] We, therefore, evaluated the impact of all tested compounds on P. vivax hypnozoites using these two isolates.
(§1) Plasmodium vivax liver stage assays were performed as described previously. Cryopreserved primary human hepatocytes (Cat No. F00995-P) and hepatocyte culture medium (HCM) (InVitroGroTM CP Medium) were obtained from Bioreclamation IVT, Inc., (Baltimore, MD, USA). Briefly, we seeded 384-well plates with primary hepatocytes from a single donor lot at a density of 25,000 cells per well. We then infected the hepatocytes with 14,000 freshly hand-dissected sporozoites per well. Cells were exposed to the compounds at indicated concentrations from day 5 post-infection. We used Pi4K inhibitor MMV390048, at 20 µM, as a positive control to eliminate P. vivax liver schizonts. We then proceeded to feed cultures every day, replacing the compounds until day 8 post-infection. Cells were fixed with 4% PFA, permeabilized with 1% Triton X-100, blocked with 2% BSA, and stained with DAPI and PvUIS4 antibodies to detect schizonts and hypnozoites forms by confocal microscopy. For antibody dilutions, PvUIS4 (kind gift from Dr. Noah Sather, Seattle Children’s Research Institute) was diluted 1:250 and the secondary antibody was anti-mouse AlexaFluor-594 (Cat # A-11005; RRID: AB_2534073) diluted 1:1000. DAPI was diluted 1:2000. The images were processed, analyzed and outlier cells were removed using IMARIS (Bitplane Inc.) image analysis software.

[4] = tested on: primary human hepatocytes; experiment: Nuclear counts (DAPI) in P. vivax-infected primary hepatocytes as measure of toxicity; type: cell-based; details: two technical replicates
Experimental: Accordingly, we applied dose–response curves of all the tested NMTs on parasite isolates 2 and 3 over concentrations up to 20 µM (Fig. 5c, d, Source Data file). […] Nuclei were counted in each well using DAPI staining as a measure of toxicity (Supplementary Fig. 86, Supplementary Source data). We used the phosphatidylinositol 4-kinase inhibitor (PI4Ki), MMV390048, as a positive control for eliminating schizonts[37],[38].
as §1, with “For antibody dilutions, PvUIS4 (kind gift from Dr. Noah Sather, Seattle Children’s Research Institute) was diluted 1:250 and the secondary antibody was anti-mouse AlexaFluor-594 (Cat # A-11005; RRID: AB_2534073) diluted 1:1000.” left out
Supplementary Fig. 86. […] Nuclear […]
counts, normalized to DMSO controls, for NMT inhibitors across a dose response. Counts were ob-tained using DAPI staining from the P. vivax-infected wells quantified in Fig. 5d. Error bars represent the standard deviation of two technical replicates.
(1 picture or pasted object on this page, not shown here)

[5] = tested on: HepG2 cells; experiment: HepG2 cytotoxicity assay (Live/Dead staining); details: replicates
Method in brief: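 Live/dead fluorescence microscopy (calcein-AM and ethidium homodimer, 1 µM each) read at 72 h post-treatment. Compounds dosed at 1 to 20 µM on HepG2 cells, with washing and fresh compound every 24 h.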

[6] = isolate 1, technical replicates (Fig. 6C)
[7] = isolate 2, technical replicates (Fig. 6C)
[8] = isolate 3, technical replicates (Fig. 6C)

Row | SMILES | IC50 [1] | SI [1] | IC50 [2] | Hypnozoites per well ([3]; 1.25 uM) | Hypnozoites per well ([3]; 2.5 uM) | Hypnozoites per well ([3]; 5 uM) | Hypnozoites per well ([3]; 10 uM) | Number of liverstage hypnozoites per well [3, 6] | Number of liverstage hypnozoites per well [3, 7] | Number of liverstage hypnozoites per well [3, 8] | Hypnozoites per well ([3]; 20 uM) | IC50 [3] | hypnozoites (fold change to DMSO) mean diff ([3]; isolate 1, 20 µM) | hypnozoites (fold change to DMSO) mean diff ([3]; isolate 2, 20 µM) | Nucleus counts per well ([4]; 1 uM) | Nucleus counts per well ([4]; 2.5uM) | Nucleus counts per well ([4]; 5 uM) | Nucleus counts per well ([4]; 10uM) | Nucleus counts per well ([4]; 20uM, P. vivax-infected wells) | Percentage of live HepG2 cells compared with diluent controls ([5]; 1 μM) | also measured
1 | c1cncc(CCOc2ccccc2-c2ccnc(N3CCNCC3)c2)c1 [Compound 12j] | 124 nM | 220.6 | 27400 nM | 9 and 6 and 12 | 13 and 12 and 8 | 19 and 3 and 13 | 13 and 10 | 0 per well (2×) and 3 per well | 0 per well (2×) and 3 per well | 0 per well | 0 (2×) and 3 | 12000 nM | 0.985 | 0.897 | 16280 per well and 14580 per well | 10950 per well and 12190 per well | 11170 per well and 12350 per well | 12430 per well and 11110 per well | 10860 per well and 12840 per well | 85.5703% and 82.8678% | Percentage of live HepG2 cells compared with diluent controls ([5]; 2.5 μM): 74.0847% and 82.3481%; Percentage of live HepG2 cells compared with diluent controls ([5]; 5 μM): 81.2567% and 75.202%; Percentage of live HepG2 cells compared with diluent controls ([5]; 10 μM): 74.4485% and 73.0193%; Percentage of live HepG2 cells compared with diluent controls ([5]; 20 μM): 72.4216% and 71.8759%
2 | Cc1nn(C)c(C)c1CCOc1cc(F)ccc1-c1cccc(N2CCNCC2)c1 [Compound 12f] | 15.9 nM | 43.9 | 699 nM | 4 (2×) and 2 | 3 | 2 and 3 (2×) | 1 | 1 per well (2×) and 0 per well | 1 per well (2×) and 0 per well | 0 per well | 1 (2×) and 0 | 1500 nM | 0.939 | 0.931 | 15280 per well and 15770 per well | 15290 per well and 15210 per well | 15170 per well and 14310 per well | 14300 per well and 15260 per well | 13150 per well and 16410 per well | 101.889% and 101.421% | Percentage of live HepG2 cells compared with diluent controls ([5]; 2.5 μM): 101.941% and 101.11%; Percentage of live HepG2 cells compared with diluent controls ([5]; 5 μM): 95.3928% and 101.733%; Percentage of live HepG2 cells compared with diluent controls ([5]; 10 μM): 95.3148% and 109.373%; Percentage of live HepG2 cells compared with diluent controls ([5]; 20 μM): 87.3113% and 87.6751%
3 | Cc1n[nH]c(C)c1CCOc1cc(F)ccc1-c1cccc(OCCN(C)C)c1 [Compound 26i] | 242 nM | 57 | 13900 nM | 10 and 7 and 12 | 7 and 9 and 14 | 10 and 7 and 12 | 8 and 12 and 14 | 8 per well and 6 per well (2×) | 8 per well and 6 per well (2×) | 0 per well | 8 and 6 (2×) | 11000 nM | 1.000 | 0.310 | 15030 per well and 14960 per well | 13600 per well and 14280 per well | 12980 per well and 13510 per well | 14570 per well and 13510 per well | 12860 per well and 13500 per well | 96.6401% and 97.1078% | Percentage of live HepG2 cells compared with diluent controls ([5]; 2.5 μM): 90.0917%; Percentage of live HepG2 cells compared with diluent controls ([5]; 5 μM): 95.2109% and 86.8435%; Percentage of live HepG2 cells compared with diluent controls ([5]; 10 μM): 86.5317% and 90.6634%; Percentage of live HepG2 cells compared with diluent controls ([5]; 20 μM): 79.0479% and 88.1213%
4 | c1cncc(CCOc2cccnc2-c2cccc(N3CCNCC3)c2)c1 [Compound 12g] | 104 nM | 152.8 | 15900 nM | 5 and 0 and 3 | 3 and 4 and 0 | 1 and 2 and 0 | 1 and 0 (2×) | 1 per well and 0 per well (2×) | 1 per well and 0 per well (2×) | 0 per well | 1 and 0 (2×) | 1200 nM | 0.785 | 0.966 | 14940 per well and 14730 per well | 14740 per well and 14990 per well | 14960 per well and 13600 per well | 13740 per well and 14770 per well | 11770 per well and 13000 per well | 99.9402% and 99.6024% | Percentage of live HepG2 cells compared with diluent controls ([5]; 2.5 μM): 99.7323% and 98.2512%; Percentage of live HepG2 cells compared with diluent controls ([5]; 5 μM): 98.4851% and 90.6374%; Percentage of live HepG2 cells compared with diluent controls ([5]; 10 μM): 86.6876% and 91.5989%; Percentage of live HepG2 cells compared with diluent controls ([5]; 20 μM): 78.4502% and 78.1644%
